Laboratory results taken from the kinase profiling compilation of Christmann-Franck et al. (2016).

Columns and labels:
Test in all cases: KINOMEscan competition binding
Details in all cases: compound 10.0 µM
[1] = system: FLT3 (human), P36888 [ITD]
MAP3K3 (human) = MAP3K3 (human) (UniProt Q99759)
GRK7 (human) = GRK7 (human) (UniProt Q8WTQ7)
TLK1 (human) = TLK1 (human) (UniProt Q9UKI8)
STK36 (human) = STK36 (human) (UniProt Q9NRP7)
IGF1R (human) = IGF1R (human) (UniProt P08069)
[2] = target: JAK3 JH1 catalytic (human) (UniProt P52333)
[3] = system: BRAF (human), P15056 [V600E]
TNNI3K (human) = TNNI3K (human) (UniProt Q59H18)
NEK5 (human) = NEK5 (human) (UniProt Q6P3R8)
CPK1 (P.falciparum) = system: CPK1 (P.falciparum)
PAK2 (human) = PAK2 (human) (UniProt Q13177)
CAMK2G (human) = CAMK2G (human) (UniProt Q13555)
VRK2 (human) = VRK2 (human) (UniProt Q86Y07)
MTOR (human) = MTOR (human) (UniProt P42345)
[4] = system: RET (human), P07949 [V804M]
LCK (human) = LCK (human) (UniProt P06239)
EPHA8 (human) = EPHA8 (human) (UniProt P29322)
PIM1 (human) = PIM1 (human) (UniProt P11309)
ITK (human) = ITK (human) (UniProt Q08881)
CDKL5 (human) = CDKL5 (human) (UniProt O76039)
GRK4 (human) = GRK4 (human) (UniProt P32298)
LRRK2 (human) = LRRK2 (human) (UniProt Q5S007)
NIM1 (human) = NIM1 (human) (UniProt Q8IY84)
CSNK1D (human) = CSNK1D (human) (UniProt P48730)
TGFBR2 (human) = TGFBR2 (human) (UniProt P37173)
FGFR4 (human) = FGFR4 (human) (UniProt P22455)
MAP2K2 (human) = MAP2K2 (human) (UniProt P36507)
DMPK (human) = DMPK (human) (UniProt Q09013)
MST4 (human) = MST4 (human) (UniProt Q9P289)
INSRR (human) = INSRR (human) (UniProt P14616)
DCLK1 (human) = DCLK1 (human) (UniProt O15075)
EPHB3 (human) = EPHB3 (human) (UniProt P54753)
CLK3 (human) = CLK3 (human) (UniProt P49761)
CAMK1G (human) = CAMK1G (human) (UniProt Q96NX5)
PAK1 (human) = PAK1 (human) (UniProt Q13153)
PIM2 (human) = PIM2 (human) (UniProt Q9P1W9)
SRPK1 (human) = SRPK1 (human) (UniProt Q96SB4)
[5] = system: KIT (human), P10721 [V559D/T670I]
CDKL2 (human) = CDKL2 (human) (UniProt Q92772)
BMPR1A (human) = BMPR1A (human) (UniProt P36894)
RPS6KB1 (human) = RPS6KB1 (human) (UniProt P23443)

CAMK2G (human), sequence (Q13555 whole entry, looked up): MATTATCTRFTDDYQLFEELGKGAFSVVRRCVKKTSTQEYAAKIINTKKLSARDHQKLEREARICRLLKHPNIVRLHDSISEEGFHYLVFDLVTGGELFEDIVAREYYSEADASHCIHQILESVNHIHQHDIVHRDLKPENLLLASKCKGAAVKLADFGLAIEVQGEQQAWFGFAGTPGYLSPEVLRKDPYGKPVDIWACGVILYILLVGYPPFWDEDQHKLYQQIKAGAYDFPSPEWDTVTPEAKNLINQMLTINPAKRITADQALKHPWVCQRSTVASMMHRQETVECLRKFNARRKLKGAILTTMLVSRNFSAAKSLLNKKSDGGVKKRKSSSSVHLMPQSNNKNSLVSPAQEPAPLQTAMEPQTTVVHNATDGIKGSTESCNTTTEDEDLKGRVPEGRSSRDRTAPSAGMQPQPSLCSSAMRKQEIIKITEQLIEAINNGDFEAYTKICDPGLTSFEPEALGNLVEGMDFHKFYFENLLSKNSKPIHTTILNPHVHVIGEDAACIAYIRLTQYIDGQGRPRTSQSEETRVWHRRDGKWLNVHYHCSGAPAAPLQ
TGFBR2 (human), sequence (P37173 whole entry, looked up): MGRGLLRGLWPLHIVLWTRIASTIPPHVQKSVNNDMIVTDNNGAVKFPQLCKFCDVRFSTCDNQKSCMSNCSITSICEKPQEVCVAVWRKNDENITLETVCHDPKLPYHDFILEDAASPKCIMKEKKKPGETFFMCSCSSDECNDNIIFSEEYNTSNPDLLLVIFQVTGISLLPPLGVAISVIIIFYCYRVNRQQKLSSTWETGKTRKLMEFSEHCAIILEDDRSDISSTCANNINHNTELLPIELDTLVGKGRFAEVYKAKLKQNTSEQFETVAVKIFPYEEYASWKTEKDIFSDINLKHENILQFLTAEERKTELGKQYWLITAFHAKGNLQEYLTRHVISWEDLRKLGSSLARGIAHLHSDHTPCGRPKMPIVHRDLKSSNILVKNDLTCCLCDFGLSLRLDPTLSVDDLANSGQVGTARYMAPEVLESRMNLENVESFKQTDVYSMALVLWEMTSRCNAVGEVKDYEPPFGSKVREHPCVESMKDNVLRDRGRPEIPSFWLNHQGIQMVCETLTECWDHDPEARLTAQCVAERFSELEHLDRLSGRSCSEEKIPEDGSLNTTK
BRAF (human), P15056 [V600E], sequence (P15056 whole entry V600E, looked up): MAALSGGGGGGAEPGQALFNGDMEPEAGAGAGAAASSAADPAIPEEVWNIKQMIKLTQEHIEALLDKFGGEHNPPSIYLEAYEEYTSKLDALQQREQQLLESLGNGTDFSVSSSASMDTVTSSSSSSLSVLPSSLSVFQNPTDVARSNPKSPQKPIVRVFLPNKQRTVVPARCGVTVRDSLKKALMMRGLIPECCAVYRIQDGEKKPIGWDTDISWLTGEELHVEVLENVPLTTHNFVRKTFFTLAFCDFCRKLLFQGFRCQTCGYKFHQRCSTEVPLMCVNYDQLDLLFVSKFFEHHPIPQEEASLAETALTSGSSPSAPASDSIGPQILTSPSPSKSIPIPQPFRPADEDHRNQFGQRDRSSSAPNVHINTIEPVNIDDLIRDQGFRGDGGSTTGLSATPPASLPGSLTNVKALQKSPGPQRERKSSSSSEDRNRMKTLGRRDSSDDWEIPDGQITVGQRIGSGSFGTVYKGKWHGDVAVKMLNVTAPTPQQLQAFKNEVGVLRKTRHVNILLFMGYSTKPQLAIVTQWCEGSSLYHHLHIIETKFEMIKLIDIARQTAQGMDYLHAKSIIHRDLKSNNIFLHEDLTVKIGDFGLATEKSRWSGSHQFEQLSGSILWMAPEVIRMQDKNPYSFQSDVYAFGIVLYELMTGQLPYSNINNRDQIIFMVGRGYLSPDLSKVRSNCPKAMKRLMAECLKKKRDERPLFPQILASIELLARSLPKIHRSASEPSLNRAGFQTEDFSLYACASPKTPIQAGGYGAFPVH
NIM1 (human), sequence (Q8IY84 whole entry, looked up): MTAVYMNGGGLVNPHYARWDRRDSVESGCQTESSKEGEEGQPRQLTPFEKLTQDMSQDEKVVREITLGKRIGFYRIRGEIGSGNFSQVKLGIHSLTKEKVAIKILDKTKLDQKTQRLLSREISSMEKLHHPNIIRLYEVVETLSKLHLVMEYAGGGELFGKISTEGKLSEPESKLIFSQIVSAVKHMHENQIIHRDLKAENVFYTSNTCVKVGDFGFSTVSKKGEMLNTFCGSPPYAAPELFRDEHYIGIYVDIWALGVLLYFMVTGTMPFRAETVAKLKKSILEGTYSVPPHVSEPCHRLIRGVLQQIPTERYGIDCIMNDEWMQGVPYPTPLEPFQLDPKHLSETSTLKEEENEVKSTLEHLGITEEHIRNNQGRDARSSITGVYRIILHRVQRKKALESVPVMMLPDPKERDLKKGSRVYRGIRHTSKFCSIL
NEK5 (human), sequence (Q6P3R8 whole entry, looked up): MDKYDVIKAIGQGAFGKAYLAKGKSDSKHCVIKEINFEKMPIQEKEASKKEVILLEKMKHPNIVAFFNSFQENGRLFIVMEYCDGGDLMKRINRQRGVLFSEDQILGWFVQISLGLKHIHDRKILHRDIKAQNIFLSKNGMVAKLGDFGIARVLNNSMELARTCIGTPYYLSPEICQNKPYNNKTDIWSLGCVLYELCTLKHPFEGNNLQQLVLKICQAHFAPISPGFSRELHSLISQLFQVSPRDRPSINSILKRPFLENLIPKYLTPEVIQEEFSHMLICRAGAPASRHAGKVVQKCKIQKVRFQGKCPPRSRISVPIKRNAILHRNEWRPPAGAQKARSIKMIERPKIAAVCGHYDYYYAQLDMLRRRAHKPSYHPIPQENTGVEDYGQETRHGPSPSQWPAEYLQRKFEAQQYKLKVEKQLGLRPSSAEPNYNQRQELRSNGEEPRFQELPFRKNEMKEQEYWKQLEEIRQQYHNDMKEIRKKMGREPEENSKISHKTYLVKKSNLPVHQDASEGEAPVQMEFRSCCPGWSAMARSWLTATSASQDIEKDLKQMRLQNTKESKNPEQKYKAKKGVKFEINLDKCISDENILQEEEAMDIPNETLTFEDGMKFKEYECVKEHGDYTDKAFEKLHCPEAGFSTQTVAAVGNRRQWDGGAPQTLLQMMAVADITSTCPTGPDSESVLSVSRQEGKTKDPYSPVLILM
SRPK1 (human), sequence (Q96SB4 whole entry, looked up): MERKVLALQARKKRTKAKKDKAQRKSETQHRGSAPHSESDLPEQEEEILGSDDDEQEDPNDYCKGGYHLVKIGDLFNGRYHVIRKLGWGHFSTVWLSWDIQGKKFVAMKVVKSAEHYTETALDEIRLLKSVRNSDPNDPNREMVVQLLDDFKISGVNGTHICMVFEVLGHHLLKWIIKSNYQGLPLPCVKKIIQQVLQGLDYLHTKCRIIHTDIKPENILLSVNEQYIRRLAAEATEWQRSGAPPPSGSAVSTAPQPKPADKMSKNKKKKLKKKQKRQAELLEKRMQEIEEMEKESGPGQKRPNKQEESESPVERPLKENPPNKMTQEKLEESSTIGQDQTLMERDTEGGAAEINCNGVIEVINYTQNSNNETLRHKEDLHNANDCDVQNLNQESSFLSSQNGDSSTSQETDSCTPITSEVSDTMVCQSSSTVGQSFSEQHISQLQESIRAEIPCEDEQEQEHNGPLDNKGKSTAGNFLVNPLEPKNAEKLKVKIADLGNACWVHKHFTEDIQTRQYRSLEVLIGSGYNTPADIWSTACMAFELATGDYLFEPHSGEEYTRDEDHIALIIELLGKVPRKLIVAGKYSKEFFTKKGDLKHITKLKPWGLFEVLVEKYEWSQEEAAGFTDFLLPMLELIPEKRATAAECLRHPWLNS
MAP2K2 (human), sequence (P36507 whole entry, looked up): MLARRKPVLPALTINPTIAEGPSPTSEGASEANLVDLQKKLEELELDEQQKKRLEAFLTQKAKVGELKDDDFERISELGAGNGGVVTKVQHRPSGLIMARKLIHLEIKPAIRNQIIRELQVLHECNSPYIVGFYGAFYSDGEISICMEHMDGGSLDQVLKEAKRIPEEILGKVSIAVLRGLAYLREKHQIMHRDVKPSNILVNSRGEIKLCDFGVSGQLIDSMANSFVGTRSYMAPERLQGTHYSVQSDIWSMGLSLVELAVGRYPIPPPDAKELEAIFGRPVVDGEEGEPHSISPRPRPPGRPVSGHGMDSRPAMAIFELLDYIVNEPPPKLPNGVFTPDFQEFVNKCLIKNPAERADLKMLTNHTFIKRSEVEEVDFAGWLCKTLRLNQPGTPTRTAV
PAK2 (human), sequence (Q13177 whole entry, looked up): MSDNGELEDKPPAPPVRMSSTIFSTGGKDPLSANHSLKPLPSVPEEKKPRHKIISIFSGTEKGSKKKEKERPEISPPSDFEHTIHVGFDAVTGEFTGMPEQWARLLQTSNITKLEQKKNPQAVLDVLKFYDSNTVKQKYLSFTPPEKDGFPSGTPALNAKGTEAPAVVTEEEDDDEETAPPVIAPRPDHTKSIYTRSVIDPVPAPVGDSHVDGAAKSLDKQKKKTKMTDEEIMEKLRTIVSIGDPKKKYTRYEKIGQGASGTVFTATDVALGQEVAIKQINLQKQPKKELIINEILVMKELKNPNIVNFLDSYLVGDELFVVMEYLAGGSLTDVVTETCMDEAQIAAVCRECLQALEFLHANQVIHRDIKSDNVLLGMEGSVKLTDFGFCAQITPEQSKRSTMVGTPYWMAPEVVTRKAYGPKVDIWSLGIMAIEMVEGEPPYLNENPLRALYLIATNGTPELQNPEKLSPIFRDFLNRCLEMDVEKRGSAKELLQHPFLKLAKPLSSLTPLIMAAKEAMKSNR
PIM1 (human), sequence (P11309 whole entry, looked up): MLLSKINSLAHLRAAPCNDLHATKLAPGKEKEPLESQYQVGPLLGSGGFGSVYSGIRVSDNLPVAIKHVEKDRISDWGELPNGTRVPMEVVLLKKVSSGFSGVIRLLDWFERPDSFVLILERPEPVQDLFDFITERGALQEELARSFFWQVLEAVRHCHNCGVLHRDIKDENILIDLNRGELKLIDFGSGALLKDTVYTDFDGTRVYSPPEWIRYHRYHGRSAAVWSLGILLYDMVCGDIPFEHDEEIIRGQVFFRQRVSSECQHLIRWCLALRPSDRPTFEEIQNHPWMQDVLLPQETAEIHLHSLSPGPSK

Q: What does the source list for `Cc1cc([C@@H](C)Nc2ccccc2C(=O)O)c2nc(N3CCOCC3)cc(=O)n2c1`?
A: kinase still bound, per cent of control [1]: 40%; kinase still bound, per cent of control (MAP3K3 (human)): 77%; kinase still bound, per cent of control (GRK7 (human)): 100%; kinase still bound, per cent of control (TLK1 (human)): 100%; kinase still bound, per cent of control (STK36 (human)): 82%; kinase still bound, per cent of control (IGF1R (human)): 100%; kinase still bound, per cent of control [2]: 100%; kinase still bound, per cent of control [3]: 80%; kinase still bound, per cent of control (TNNI3K (human)): 15%; kinase still bound, per cent of control (NEK5 (human)): 100%; kinase still bound, per cent of control (CPK1 (P.falciparum)): 75%; kinase still bound, per cent of control (PAK2 (human)): 100%; kinase still bound, per cent of control (CAMK2G (human)): 87%; kinase still bound, per cent of control (VRK2 (human)): 83%; kinase still bound, per cent of control (MTOR (human)): 18%; kinase still bound, per cent of control [4]: 99%; kinase still bound, per cent of control (LCK (human)): 81%; kinase still bound, per cent of control (EPHA8 (human)): 82%; kinase still bound, per cent of control (PIM1 (human)): 100%; kinase still bound, per cent of control (ITK (human)): 100%; kinase still bound, per cent of control (CDKL5 (human)): 82%; kinase still bound, per cent of control (GRK4 (human)): 80%; kinase still bound, per cent of control (LRRK2 (human)): 97%; kinase still bound, per cent of control (NIM1 (human)): 100%; kinase still bound, per cent of control (CSNK1D (human)): 57%; kinase still bound, per cent of control (TGFBR2 (human)): 100%; kinase still bound, per cent of control (FGFR4 (human)): 40%; kinase still bound, per cent of control (MAP2K2 (human)): 98%; kinase still bound, per cent of control (DMPK (human)): 95%; kinase still bound, per cent of control (MST4 (human)): 100%; kinase still bound, per cent of control (INSRR (human)): 100%; kinase still bound, per cent of control (DCLK1 (human)): 100%; kinase still bound, per cent of control (EPHB3 (human)): 100%; kinase still bound, per cent of control (CLK3 (human)): 95%; kinase still bound, per cent of control (CAMK1G (human)): 100%; kinase still bound, per cent of control (PAK1 (human)): 97%; kinase still bound, per cent of control (PIM2 (human)): 83%; kinase still bound, per cent of control (SRPK1 (human)): 100%; kinase still bound, per cent of control [5]: 64%; kinase still bound, per cent of control (CDKL2 (human)): 100%; kinase still bound, per cent of control (BMPR1A (human)): 79%; kinase still bound, per cent of control (RPS6KB1 (human)): 100%
